One data set deals with A2780. Description: In vitro cell growth inhibition assay (MTT). It counts as cell-based, human. The settings on record: read-out: IC50 A2780. In outline: (§1)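 SKOV3, A2780 or HeLa cells were seeded at 5000 per well, allowed to adhere overnight, then treated 48 h with compounds; 0.2% DMSO served as control. IC50 values came from growth inhibition rates.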
Another data set has as its system SKOV3. As to the kind of experiment: In vitro cell growth inhibition assay (MTT). It counts as cell-based, human. The settings on record: read-out: IC50 SKOV3. In outline: as §1
The subject of the next data set is MDA-MB-231. Description: In vitro cell growth inhibition assay (MTT). It counts as cell-based, human. Particulars: read-out: IC50 MDA-MB-231. The method in brief: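 Following overnight adherence of 5000 cells per well, compounds or 0.2% DMSO were applied for 48 h. Medium was then swapped for 0.5 mg/mL MTT medium (4 h, 37° C), crystals dissolved in DMSO, and plates read at 540 nm.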

A further data set deals with Hela. As to the kind of experiment: In vitro cell growth inhibition assay (MTT). Type of data set: cell-based, human. The settings on record: 48 h, read-out: IC50 Hela. In outline:
as §1

Setting [1] is: A2780 human ovarian cancer cell line, 48 h, MTT.
[2] abbreviates: SK-OV-3, SKOV-3 human ovarian cancer cell line, 48 h, MTT.
Where [3] appears, read: MDA-MB-231 human breast cancer cell line, 48 h, MTT.
The mark [4] stands for this setting: Hela human cervical cancer cell line, MTT.

Structures can show the parent of a compound that is named as a salt. Where two headings read alike, the source gives them in different places. Bounds are passed on as bounds.

A word on the melting point: it is the temperature of the solid-liquid transition. The compound `C=C1C(=O)N(c2cc(OC)c(OC)c(OC)c2)[C@H]1c1ccc(OC)c(OS(=O)(=O)c2ccc(C)cc2)c1` (as salt: benzenesulfonate) [Compound 27, (S)-2-methoxy-5-(3-methylene-4-oxo-1-(3,4,5-trimethoxyphenyl)azetidin-2-yl)phenyl 4-methylbenzenesulfonate] displayed a melting point of 162 to 163 °C.
Still for that read-out and setting: in the case of `C=C1C(=O)N(c2cc(OC)c(OC)c(OC)c2)[C@H]1c1ccc(OC)c(OS(=O)(=O)c2ccc(NC(C)=O)cc2)c1` (as salt: benzenesulfonate) [Compound 30, (S)-2-methoxy-5-(3-methylene-4-oxo-1-(3,4,5-trimethoxyphenyl)azetidin-2-yl)phenyl 4-acetamidobenzenesulfonate] it was 87 to 88 °C; in that of `C=C1C(=O)N(c2cc(OC)c(OC)c(OC)c2)[C@H]1c1ccc(OC)c(OS(=O)(=O)c2ccc(OC)c(OC)c2)c1` (as salt: benzenesulfonate) [Compound 33, (S)-2-methoxy-5-(3-methylene-4-oxo-1-(3,4,5-trimethoxyphenyl)azetidin-2-yl)phenyl 3,4-dimethoxybenzenesulfonate], 70 to 71 °C.
Turning to `C=C1C(=O)N(c2cc(OC)c(OC)c(OC)c2)[C@H]1c1ccc(OC)c(OS(=O)(=O)Cc2ccccc2)c1` (as salt: methanesulfonate) [Compound 32, (S)-2-methoxy-5-(3-methylene-4-oxo-1-(3,4,5-trimethoxyphenyl)azetidin-2-yl)phenyl phenylmethanesulfonate], the melting point fell in the range of 58 to 59 °C.
Usually IC50 stands for the midpoint of a concentration-inhibition curve. Consider `C=C1C(=O)N(c2cc(OC)c(OC)c(OC)c2)[C@H]1c1ccc(OC)c(OC)c1` [Compound 2, (S)-4-(3,4-dimethoxyphenyl)-3-methylene-1-(3,4,5-trimethoxyphenyl)azetidin-2-one], for which the melting point is 138 to 139 °C. The IC50 with A2780 (setting [1]) was determined as 0.854 µM. The IC50 in the data set with SKOV3 (setting [2]) was 2.26 µM. Also, the IC50 in the data set with MDA-MB-231 (setting [3]) turned out to be 1.02 µM. Also, in the data set on Hela (setting [4]), the IC50 worked out at 3.16 µM.
The corresponding values for `C=C1C(=O)N(c2cc(OC)c(OC)c(OC)c2)[C@H]1c1ccc(OC)c(OCC)c1` [Compound 3, (S)-4-(3-ethoxy-4-methoxyphenyl)-3-methylene-1-(3,4,5-trimethoxyphenyl)azetidin-2-one] are 92 to 93 °C, 0.854 µM, 1.14 µM, 0.958 µM and 2.03 µM.
As to `C=C1C(=O)N(c2cc(OC)c(OC)c(OC)c2)[C@H]1c1ccc(OC)c(OCCC)c1` [Compound 4, (S)-4-(4-methoxy-3-propoxyphenyl)-3-methylene-1-(3,4,5-trimethoxyphenyl)azetidin-2-one], the melting point is 90 to 91 °C. For the same compound, in the data set on A2780 (setting [1]), the IC50 is 3.42 µM. For the same compound, the IC50 in the data set with SKOV3 (setting [2]) was 5.26 µM. In addition, the IC50 with MDA-MB-231 (setting [3]) was determined as 5.62 µM. In addition, in the data set on Hela (setting [4]), the IC50 is 6.89 µM.
On to `C=C1C(=O)N(c2cc(OC)c(OC)c(OC)c2)[C@H]1c1ccc(OC)c(OC(C)C)c1` [Compound 5, (S)-4-(3-isopropoxy-4-methoxyphenyl)-3-methylene-1-(3,4,5-trimethoxyphenyl)azetidin-2-one], for which the melting point was 146 to 147 °C. Also, the IC50 in the data set with A2780 (setting [1]) stood at 11.3 µM. For the same compound, in the data set on SKOV3 (setting [2]), the half-inhibitory concentration (IC50) came out at 18 µM. Besides, the IC50 in the data set on MDA-MB-231 (setting [3]) was 15.9 µM. Also, the IC50 with Hela (setting [4]) was greater than 20 µM.
For the compound `C=CCOc1cc([C@H]2C(=C)C(=O)N2c2cc(OC)c(OC)c(OC)c2)ccc1OC` [Compound 6, (S)-4-(3-(allyloxy)-4-methoxyphenyl)-3-methylene-1-(3,4,5-trimethoxyphenyl)azetidin-2-one], the melting point was in the range of 92 to 93 °C. Also, the IC50 in the data set with A2780 (setting [1]) was 1.25 µM. Also, in the data set with SKOV3 (setting [2]), the IC50 turned out to be 1.48 µM. Further, the IC50 in the data set on MDA-MB-231 (setting [3]) turned out to be 0.883 µM. Further, the IC50 in the data set with Hela (setting [4]) is 1.15 µM.
The corresponding values for `C#CCOc1cc([C@H]2C(=C)C(=O)N2c2cc(OC)c(OC)c(OC)c2)ccc1OC` [Compound 7, (S)-4-(4-methoxy-3-(prop-2-yn-1-yloxy)phenyl)-3-methylene-1-(3,4,5-trimethoxyphenyl)azetidin-2-one] are 106 to 107 °C, 0.429 µM, 0.841 µM, 1.2 µM and 1.05 µM.
Regarding `C=C1C(=O)N(c2cc(OC)c(OC)c(OC)c2)[C@H]1c1ccc(OC)c(OCCCl)c1` [Compound 10, (S)-4-(3-(2-chloroethoxy)-4-methoxyphenyl)-3-methylene-1-(3,4,5-trimethoxyphenyl)azetidin-2-one], the melting point was in the range of 91 to 92 °C. Besides, the IC50 in the data set on A2780 (setting [1]) amounted to 0.409 µM. In the data set with SKOV3 (setting [2]), the concentration for half-maximal inhibition (IC50) is 0.864 µM. Also, the IC50 in the data set on MDA-MB-231 (setting [3]) came to 0.608 µM. Further, the IC50 with Hela (setting [4]) worked out at 0.887 µM.
Consider `C=C1C(=O)N(c2cc(OC)c(OC)c(OC)c2)[C@H]1c1ccc(OC)c(OCCCCl)c1` [Compound 11, (S)-4-(3-(3-chloropropoxy)-4-methoxyphenyl)-3-methylene-1-(3,4,5-trimethoxyphenyl)azetidin-2-one], for which the melting point fell in the range of 72 to 73 °C. Besides, the IC50 with A2780 (setting [1]) amounted to 2.18 µM. In the data set with SKOV3 (setting [2]), the IC50 came to 4.07 µM. Besides, the IC50 in the data set on MDA-MB-231 (setting [3]) amounted to 4.15 µM. Also, the IC50 in the data set with Hela (setting [4]) was found to be 6.04 µM.
The corresponding values for `C=C1C(=O)N(c2cc(OC)c(OC)c(OC)c2)[C@H]1c1ccc(OC)c(OCCN2CCOCC2)c1` [Compound 15, (S)-4-(4-methoxy-3-(2-morpholinoethoxy)phenyl)-3-methylene-1-(3,4,5-trimethoxyphenyl)azetidin-2-one] are 86 to 87 °C, greater than 10 µM, greater than 10 µM, greater than 10 µM and greater than 10 µM.
`C=C1C(=O)N(c2cc(OC)c(OC)c(OC)c2)[C@H]1c1ccc(OC)c(OC(=O)c2ccccc2)c1` [Compound 18, (S)-2-methoxy-5-(3-methylene-4-oxo-1-(3,4,5-trimethoxyphenyl)azetidin-2-yl)phenyl benzoate] displayed a melting point of 151 to 152 °C. The IC50 in the data set on A2780 (setting [1]) was 0.287 µM. Further, the IC50 in the data set with SKOV3 (setting [2]) is 0.484 µM. In addition, in the data set on MDA-MB-231 (setting [3]), the IC50 was found to be 0.637 µM. In addition, the IC50 with Hela (setting [4]) is 0.386 µM.
The compound `C=C1C(=O)N(c2cc(OC)c(OC)c(OC)c2)[C@H]1c1ccc(OC)c(OC(=O)c2ccc([N+](=O)[O-])cc2)c1` [Compound 19, (S)-2-methoxy-5-(3-methylene-4-oxo-1-(3,4,5-trimethoxyphenyl)azetidin-2-yl)phenyl 4-nitrobenzoate] came in with a melting point of 88 to 89 °C. Moreover, in the data set with A2780 (setting [1]), the half-inhibitory concentration (IC50) was determined as 0.055 µM. The IC50 in the data set on SKOV3 (setting [2]) came out at 0.084 µM. For the same compound, in the data set with MDA-MB-231 (setting [3]), the IC50 was found to be 0.105 µM. Also, the IC50 with Hela (setting [4]) worked out at 0.102 µM.
Compound `C=C1C(=O)N(c2cc(OC)c(OC)c(OC)c2)[C@H]1c1ccc(OC)c(OC(=O)c2ccc(F)cc2)c1` [Compound 20, (S)-2-methoxy-5-(3-methylene-4-oxo-1-(3,4,5-trimethoxyphenyl)azetidin-2-yl)phenyl 4-fluorobenzoate] yielded a melting point of 185 to 186 °C. Also, the IC50 with A2780 (Homo sapiens, A2780, 48 h) was determined as 0.169 µM. The IC50 with SKOV3 (Homo sapiens, SK-OV-3, 48 h) came to 0.114 µM. Moreover, the IC50 with MDA-MB-231 (Homo sapiens, MDA-MB-231, 48 h) turned out to be 0.223 µM. Further, in the data set with Hela (Homo sapiens, HeLa), the IC50 is 0.075 µM.
The compound `C=C1C(=O)N(c2cc(OC)c(OC)c(OC)c2)[C@H]1c1ccc(OC)c(OC(=O)c2cccnc2)c1` [Compound 22, (S)-2-methoxy-5-(3-methylene-4-oxo-1-(3,4,5-trimethoxyphenyl)azetidin-2-yl)phenyl nicotinate] returned a melting point of 113 to 114 °C. Besides, the IC50 with A2780 (setting [1]) came to 0.112 µM. Also, the IC50 in the data set on SKOV3 (setting [2]) came out at 0.075 µM. Further, in the data set on MDA-MB-231 (setting [3]), the IC50 came to 0.151 µM. In addition, the IC50 in the data set on Hela (setting [4]) came out at 0.115 µM.
Consider `C=C1C(=O)N(c2cc(OC)c(OC)c(OC)c2)[C@H]1c1ccc(OC)c(OC(=O)C2CC2)c1` [Compound 23, (S)-2-methoxy-5-(3-methylene-4-oxo-1-(3,4,5-trimethoxyphenyl)azetidin-2-yl)phenyl cyclopropanecarboxylate], for which the melting point was 68 to 69 °C. Further, in the data set on A2780 (Homo sapiens, A2780, 48 h), the IC50 is 0.129 µM. Besides, in the data set with SKOV3 (Homo sapiens, SK-OV-3, 48 h), the IC50 was determined as 0.108 µM. In addition, the half-inhibitory concentration (IC50) in the data set with MDA-MB-231 (Homo sapiens, MDA-MB-231, 48 h) was 0.207 µM. Further, in the data set on Hela (Homo sapiens, HeLa), the concentration for half-maximal inhibition (IC50) came out at 0.142 µM.
Compound `C=CC(=O)Oc1cc([C@H]2C(=C)C(=O)N2c2cc(OC)c(OC)c(OC)c2)ccc1OC` [Compound 24, (S)-2-methoxy-5-(3-methylene-4-oxo-1-(3,4,5-trimethoxyphenyl)azetidin-2-yl)phenyl acrylate] registered a melting point of 109 to 110 °C. The IC50 with A2780 (setting [1]) was determined as 0.328 µM. In the data set with SKOV3 (setting [2]), the IC50 worked out at 0.522 µM. Also, the IC50 in the data set on MDA-MB-231 (setting [3]) worked out at 0.565 µM. For the same compound, the IC50 in the data set with Hela (setting [4]) is 0.49 µM.
`COc1ccc([C@H]2[C@@H](C)C(=O)N2c2cc(OC)c(OC)c(OC)c2)cc1OS(=O)(=O)F` [Compound 108, 2-methoxy-5-((2R,3R)-3-methyl-4-oxo-1-(3,4,5-trimethoxyphenyl)azetidin-2-yl)phenyl sulfofluoridate]: the IC50 in the data set with A2780 (setting [1]) stood at 0.035 µM; with SKOV3 (setting [2]), 0.062 µM; in the data set with MDA-MB-231 (setting [3]) it was 0.04 µM; with Hela (setting [4]), 0.054 µM.
The corresponding values for `COc1ccc([C@H]2[C@H](C)C(=O)N2c2cc(OC)c(OC)c(OC)c2)cc1OS(=O)(=O)F` [Compound 109, 2-methoxy-5-((2R,3S)-3-methyl-4-oxo-1-(3,4,5-trimethoxyphenyl)azetidin-2-yl)phenyl sulfofluoridate] are 0.021 µM, 0.034 µM, 0.023 µM and 0.051 µM.

For the origin of these results see US20200392150A1, “Diaryl-B-Lactam Compound and Preparation Method and Pharmaceutical Use Thereof” (Fudan University, priority 2016, published 2020).
